According to patent publication US10144709B2, “Piperidine compounds, pharmaceutical composition comprising the same and its use” (SK BIOPHARMACEUTICALS CO., LTD., priority 2008, dated 2018):
Counter-ions that a name gives are not always drawn.

Test system: ICR CD strain male mice
Assay: Gastric emptying enhancing activity (phenol red meal)
Assay type: in vivo
Conditions: Mus musculus, ip, 0.25 h, 3.0 mg/kg i.p., gastric emptying at 15 min after test meal, increase vs vehicle
Procedure: ICR CD strain male mice (body weight, 25˜30 g; 8 mice per one group) were fasted for 24 h but allowed free access to water until 3 hours before the test.
Compounds to be tested for promoting GI motility were injected intraperitoneally or given orally at 30 min or 60 min prior to phenol red meal administration. Fifteen (15) min after administration of a test meal (0.5% Phenol red in 1.5% methylcellulose solution), mice were sacrificed and the stomach (pylorus˜cardia) was removed and collected to vial. The stomach was homogenized with its contents in 0.1N NaOH and the mixture was centrifuged (700*g) for 20 min. 2.5 mL of the supernatant was added to 0.25 mL of trichloroacetic acid solution (20% w/v) to precipitate proteins. After centrifuging (2600*g) for 20 min, 0.5 mL of the supernatant was added to 0.25 mL of 1N NaOH. The mixture was homogenized and its absorbance (Abs) was read at 560 nm.
In each experiment, one group was sacrificed just after the administration of the test meal and was considered as a standard (0% emptying). The gastric emptying (GE) at the 15 min period was calculated according to the following formula. GE (%)=(1−Abstest/Absstandard)×100 Increase (%)=(GE %test−GE %vehicle)/GE %vehicle*100

| Structure (SMILES) | change in vivo at 3 mg/kg [%] |
| --- | --- |
| COc1cc(N)c(Cl)cc1C(=O)NCC1CCN(CCC(NC(=O)O)c2ccc(F)cc2)CC1 (stereo not drawn) [Example 54, [3-[4-[[(4-amino-5-chloro-2-methoxybenzoyl)amino]methyl]piperidin-1-yl]-1-(4-fluorophenyl)propyl]carbamate; hydrochloride] | 89.2 |
| COc1cc(N)c(Cl)cc1C(=O)NCC1CCN(CCC(NC(=O)O)c2ccccc2Cl)CC1 (stereo not drawn) [Example 56, [3-[4-[[(4-amino-5-chloro-2-methoxybenzoyl)amino]methyl]piperidin-1-yl]-1-(2-chlorophenyl)propyl]carbamate; hydrochloride] | 135 |
| COc1cc(N)c(Cl)cc1C(=O)NCC1CCN(CCC(NC(=O)O)c2cccc(Cl)c2Cl)CC1 (stereo not drawn) [Example 59, [3-[4-[[(4-amino-5-chloro-2-methoxybenzoyl)amino]methyl]piperidin-1-yl]-1-(2,3-dichlorophenyl)propyl]carbamate; hydrochloride] | 48 |
| COc1cc(N)c(Cl)cc1C(=O)NCC1CCN(CCC(NC(=O)O)c2ccc(Cl)cc2Cl)CC1 (stereo not drawn) [Example 60, [3-[4-[[(4-amino-5-chloro-2-methoxybenzoyl)amino]methyl]piperidin-1-yl]-1-(2,4-dichlorophenyl)propyl]carbamate; hydrochloride] | 14.2 |
| COc1cc(N)c(Cl)cc1C(=O)NCC1CCN(CCC(NC(=O)O)c2ccc(Cl)c(Cl)c2)CC1 (stereo not drawn) [Example 61, [3-[4-[[(4-amino-5-chloro-2-methoxybenzoyl)amino]methyl]piperidin-1-yl]-1-(3,4-dichlorophenyl)propyl]carbamate; hydrochloride] | 44.3 |
| COc1cc(N)c(Cl)cc1C(=O)NCC1CCN(CCC(NC(=O)O)c2ccc(C(C)C)cc2)CC1 (stereo not drawn) [Example 62, [3-[4-[[(4-amino-5-chloro-2-methoxybenzoyl)amino]methyl]piperidin-1-yl]-1-(4-isopropylphenyl)propyl]carbamate; hydrochloride] | 17.9 |
| COc1cccc(C(CCN2CCC(CNC(=O)c3cc(Cl)c(N)cc3OC)CC2)NC(=O)O)c1 (stereo not drawn) [Example 63, [3-[4-[[(4-amino-5-chloro-2-methoxybenzoyl)amino]methyl]piperidin-1-yl]-1-(3-methoxyphenyl)propyl]carbamate; hydrochloride] | 24.4 |
| COc1cc(N)c(Cl)cc1C(=O)NCC1CCN(CCC(Cc2ccc(F)cc2)NC(=O)O)CC1 (stereo not drawn) [Example 65, [4-[4-[[(4-amino-5-chloro-2-methoxybenzoyl)amino]methyl]piperidin-1-yl]-1-(4-fluorophenyl)butan-2-yl]carbamate; hydrochloride] | 93.1 |
| COc1cc(N)c(Cl)cc1C(=O)NCC1CCN(CC(O)COc2ccccc2)CC1 (stereo not drawn) [Example 71, 4-amino-5-chloro-N-[[1-(2-hydroxy-3-phenoxypropyl)piperidin-4-yl]methyl]-2-methoxybenzamide; hydrochloride] | 63.7 |
| COc1cc(N)c(Cl)cc1C(=O)NCC1CCN(CC(O)COc2ccc(F)cc2)CC1 (stereo not drawn) [Example 72, 4-amino-5-chloro-N-[[1-[3-(4-fluorophenoxy)-2-hydroxypropyl]piperidin-4-yl]methyl]-2-methoxybenzamide; hydrochloride] | 48.1 |
| COc1ccc(OCC(O)CN2CCC(CNC(=O)c3cc(Cl)c(N)cc3OC)CC2)cc1 (stereo not drawn) [Example 74, 4-amino-5-chloro-N-[[1-[2-hydroxy-3-(4-methoxyphenoxy)propyl]piperidin-4-yl]methyl]-2-methoxybenzamide; hydrochloride] | 46.7 |
| COc1cc(N)c(Cl)cc1C(=O)NCC1CCN(CC(O)COc2ccc(C(F)(F)F)cc2)CC1 (stereo not drawn) [Example 83, 4-amino-5-chloro-N-[[1-[2-hydroxy-3-[4-(trifluoromethyl)phenoxy]propyl]piperidin-4-yl]methyl]-2-methoxybenzamide; hydrochloride] | 42.5 |
| COc1cc(N)c(Cl)cc1C(=O)NCC1CCN(CC(COc2ccccc2)OC(=O)N2CCCCC2)CC1 (stereo not drawn) [Example 88, [1-[4-[[(4-amino-5-chloro-2-methoxybenzoyl)amino]methyl]piperidin-1-yl]-3-phenoxypropan-2-yl]piperidine-1-carboxylate; hydrochloride] | 44.1 |
| COc1cc(N)c(Cl)cc1C(=O)NCC1CCN(CC(COc2ccc(F)cc2)OC(=O)N2CC(C)CC(C)C2)CC1 (stereo not drawn) [Example 89, [1-[4-[[(4-amino-5-chloro-2-methoxybenzoyl)amino]methyl]piperidin-1-yl]-3-(4-fluorophenoxy)propan-2-yl]3,5-dimethylpiperidine-1-carboxylate; hydrochloride] | 45.3 |
| COc1cc(N)c(Cl)cc1C(=O)NCC1CCN(CC(COc2ccc(Cl)cc2Cl)NC(=O)O)CC1 (stereo not drawn) [Example 96, [1-[4-[[(4-amino-5-chloro-2-methoxybenzoyl)amino]methyl]piperidin-1-yl]-3-(2,4-dichlorophenoxy)propan-2-yl]carbamate; hydrochloride] | 105 |
| COc1cc(N)c(Cl)cc1C(=O)NCC1CCN(CC(COc2c(Cl)cccc2Cl)NC(=O)O)CC1 (stereo not drawn) [Example 98, [1-[4-[[(4-amino-5-chloro-2-methoxybenzoyl)amino]methyl]piperidin-1-yl]-3-(2,6-dichlorophenoxy)propan-2-yl]carbamate; hydrochloride] | 63.6 |
| COc1cc(N)c(Cl)cc1C(=O)NCC1CCN(CC(COc2ccc(Cl)c(Cl)c2)NC(=O)O)CC1 (stereo not drawn) [Example 99, [1-[4-[[(4-amino-5-chloro-2-methoxybenzoyl)amino]methyl]piperidin-1-yl]-3-(3,4-dichlorophenoxy)propan-2-yl]carbamate; hydrochloride] | 47.5 |
| COc1cc(N)c(Cl)cc1C(=O)NCC1CCN(CC(COc2ccc(C(F)(F)F)cc2)NC(=O)O)CC1 (stereo not drawn) [Example 100, [1-[4-[[(4-amino-5-chloro-2-methoxybenzoyl)amino]methyl]piperidin-1-yl]-3-[4-(trifluoromethyl)phenoxy]propan-2-yl]carbamate; hydrochloride] | 46.1 |
| COc1cc(N)c(Cl)cc1C(=O)NCC1CCN(CC(Cc2ccccc2)NC(=O)O)CC1 (stereo not drawn) [Example 103, [1-[4-[[(4-amino-5-chloro-2-methoxybenzoyl)amino]methyl]piperidin-1-yl]-3-phenylpropan-2-yl]carbamate; hydrochloride] | 88.8 |
| CC(C)n1c(=O)n(C(=O)NCC2CCN(CC(O)COc3ccccc3)CC2)c2ccccc21 (stereo not drawn) [Example 104, N-[[1-(2-hydroxy-3-phenoxypropyl)piperidin-4-yl]methyl]-2-oxo-3-propan-2-ylbenzimidazole-1-carboxamide; hydrochloride] | 81 |
| Cn1c(=O)n(C(=O)NCC2CCN(CC(O)COc3ccccc3)CC2)c2ccccc21 (stereo not drawn) [Example 111, N-[[1-(2-hydroxy-3-phenoxypropyl)piperidin-4-yl]methyl]-3-methyl-2-oxobenzimidazole-1-carboxamide; hydrochloride] | 37.2 |
| COc1ccc(OCC(CN2CCC(CNC(=O)n3c(=O)n(C(C)C)c4ccccc43)CC2)NC(=O)O)cc1 (stereo not drawn) [Example 121, [1-(4-methoxyphenoxy)-3-[4-[[(2-oxo-3-propan-2-ylbenzimidazole-1-carbonyl)amino]methyl]piperidin-1-yl]propan-2-yl]carbamate; hydrochloride] | 46.8 |
| CC(C)n1c(=O)n(C(=O)NCC2CCN(CC(COc3ccc(F)cc3)NC(=O)O)CC2)c2ccccc21 (stereo not drawn) [Example 122, [1-(4-fluorophenoxy)-3-[4-[[(2-oxo-3-propan-2-ylbenzimidazole-1-carbonyl)amino]methyl]piperidin-1-yl]propan-2-yl]carbamate; hydrochloride] | 6.8 |
| Cc1ccccc1OCC(CN1CCC(CNC(=O)n2c(=O)n(C(C)C)c3ccccc32)CC1)NC(=O)O (stereo not drawn) [Example 123, [1-(2-methylphenoxy)-3-[4-[[(2-oxo-3-propan-2-ylbenzimidazole-1-carbonyl)amino]methyl]piperidin-1-yl]propan-2-yl]carbamate; hydrochloride] | 56.8 |
| Cn1c(=O)n(C(=O)NCC2CCN(CC(COc3ccccc3)NC(=O)O)CC2)c2ccccc21 (stereo not drawn) [Example 126, [1-[4-[[(3-methyl-2-oxobenzimidazole-1-carbonyl)amino]methyl]piperidin-1-yl]-3-phenoxypropan-2-yl]carbamate; hydrochloride] | 93.3 |
| O=C(NCC1CCN(CCC(O)c2ccccc2)CC1)n1c(=O)n(C2CC2)c2ccccc21 (stereo not drawn) [Example 135, 3-cyclopropyl-N-[[1-(3-hydroxy-3-phenylpropyl)piperidin-4-yl]methyl]-2-oxobenzimidazole-1-carboxamide; hydrochloride] | 90.3 |
| CC(C)n1c(=O)n(C(=O)NCC2CCN(CCC(O)c3ccccc3)CC2)c2ccccc21 (stereo not drawn) [Example 136, N-[[1-(3-hydroxy-3-phenylpropyl)piperidin-4-yl]methyl]-2-oxo-3-propan-2-ylbenzimidazole-1-carboxamide; hydrochloride] | 64.1 |
